This experiment concerns the target T1, L-type amino acid transporter 1 (LAT1) (Homo sapiens, UniProt Q01650).
T1 construct: gene SLC7A5
Nature of the experiment: cell-based.

Read-outs that look alike come from different tables or passages of the source.

T1 sequence (Q01650 whole entry): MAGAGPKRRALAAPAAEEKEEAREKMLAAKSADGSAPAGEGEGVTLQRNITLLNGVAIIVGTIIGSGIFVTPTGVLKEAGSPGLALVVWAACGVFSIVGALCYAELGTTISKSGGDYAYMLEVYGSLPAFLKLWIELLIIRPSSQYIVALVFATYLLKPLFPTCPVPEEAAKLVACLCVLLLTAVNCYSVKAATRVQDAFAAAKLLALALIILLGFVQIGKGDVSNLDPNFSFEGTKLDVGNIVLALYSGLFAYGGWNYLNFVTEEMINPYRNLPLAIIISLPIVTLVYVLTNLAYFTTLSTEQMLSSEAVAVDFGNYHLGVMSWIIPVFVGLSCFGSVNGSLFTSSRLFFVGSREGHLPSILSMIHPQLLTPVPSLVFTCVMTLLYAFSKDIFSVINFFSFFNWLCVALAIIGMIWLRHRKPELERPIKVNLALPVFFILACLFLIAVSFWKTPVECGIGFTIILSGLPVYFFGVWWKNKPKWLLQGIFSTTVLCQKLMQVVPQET
T1 sequence (P08195 103-630 partner): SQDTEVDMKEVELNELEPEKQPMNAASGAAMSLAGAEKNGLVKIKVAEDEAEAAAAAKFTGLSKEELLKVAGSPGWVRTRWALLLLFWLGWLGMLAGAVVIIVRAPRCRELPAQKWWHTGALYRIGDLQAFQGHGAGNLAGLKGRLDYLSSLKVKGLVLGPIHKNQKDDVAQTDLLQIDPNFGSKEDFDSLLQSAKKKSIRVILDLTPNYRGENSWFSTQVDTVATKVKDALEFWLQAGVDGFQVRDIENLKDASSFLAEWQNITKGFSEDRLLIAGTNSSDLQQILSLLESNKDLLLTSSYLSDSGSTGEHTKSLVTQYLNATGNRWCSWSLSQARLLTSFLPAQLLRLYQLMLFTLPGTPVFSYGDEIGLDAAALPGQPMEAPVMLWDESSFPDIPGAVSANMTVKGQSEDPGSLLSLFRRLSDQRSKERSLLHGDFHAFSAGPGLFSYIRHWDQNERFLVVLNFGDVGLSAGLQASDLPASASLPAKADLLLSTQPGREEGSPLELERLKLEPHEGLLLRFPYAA

`N[C@@H](Cc1ccc(NC(=O)Oc2ccc3c(c2)OCO3)cc1)C(=O)O` [4-sesamol carbamate-L-phenylalanine prodrug]: 631 ± 38 µM corresponded to half-maximal inhibition (IC50).

For the molecule `N[C@@H](Cc1ccccc1)C(=O)O` [L-Phenylalanine], under “read-out: IC50”, the IC50 was 96.8 ± 11.5 µM. With `Oc1ccc2c(c1)OCO2` [Sesamol], 4760 ± 219 µM corresponded to half-maximal inhibition (IC50).

The values are drawn from article PMC9369069, “Development of Sesamol Carbamate-L-Phenylalanine Prodrug Targeting L-Type Amino Acid Transporter1 (LAT1) as a Potential Antiproliferative Agent against Melanoma” (International Journal of Molecular Sciences, 2022).
